# From patent US20080318982A1, “Pharmaceutical Combination for the Treatment of Luts” (Pfizer, Inc., priority 2005, published 2008)
# System: Anaesthetized Guinea-pig
# Assay: Filling cystometry in the anaesthetized guinea-pig (effects on lower urinary tract function)
# Type: in vivo
# Conditions: for % Change in Micturition Pressure / % Change in Threshold Volume: infused continuously for 60 min, vs baseline
# Protocol: Animals: Female Hartley guinea pigs (body weight 300-350 grams).
# Surgical procedure: The animals are anaesthetized with urethane (1.5 g/kg intraperitoneally) given as a divided dose of 80% initially and 20% 15 min later. Body temperature is maintained at 37±2° C. throughout the experiment. The bladder is exposed through a lower abdominal incision and a polyethylene catheter with a small cuff is inserted in the bladder dome and secured with a purse-string suture. The ureters are then ligatured. The bladder is replaced under the abdominal wall and the catheter is connected via a T-tube to a pressure transducer in order to measure intravesical pressure. The trachea is cannulated. The jugular vein is cannulated to allow administration of test compounds and the femoral artery is cannulated in order to collect plasma sample.
# Cystometry: A series of filling cystometry cycles are performed throughout the experimental measurement period to establish baseline parameters and determine drug effect. Before each cystometry cycle, the bladder is emptied manually. Saline at room temperature is then infused continuously into the bladder via the catheter at a flow rate of 600 μL/min until a micturition occurs. The following micturition parameters are measured during each cystometry cycle: Micturition Pressure (MP, the pressure in the bladder during voiding) and Threshold Volume (ThV, volume at which micturition occurs, mL).
# Evaluation of drug effect: After the determination of baseline parameters (mean of 3 micturition cycles), test substance or vehicle is administered continuously for 60 minutes. At the end of the drug infusion period, the effect of drug on cystometry parameters is determined by taking an average of the measurements made in two micturition cycles. For combination studies, the respective doses of the test compounds are infused together over a 60 min period following the measurement of baseline parameters.
Compound,% Change in Micturition Pressure (Oxybutynin 3.18 mg/kg),% Change in Threshold Volume (Oxybutynin 3.18 mg/kg),effect on micturition pressure (in words) (oxybutynin 3.18 mg/kg),"effect on micturition pressure (in words) (Compound A 0.11 mg/kg, 0.32 mg/kg)",% Change in Micturition Pressure (Compound A 0.11 mg/kg) [%],% Change in Threshold Volume (Compound A 0.11 mg/kg) [%],% Change in Micturition Pressure (Compound A 0.32 mg/kg) [%],% Change in Threshold Volume (Compound A 0.32 mg/kg)
"CCN(CC)CC#CCOC(=O)C(O)(c1ccccc1)C1CCCCC1 (centres unmarked) [Oxybutynin, oxybutynin, reference compound]",+3.2%,+18.9%,small increase,,,,,
"CCCOc1ccc(S(=O)(=O)N2CCN(CC)CC2)cc1-c1nc2c(CC)nn(Cc3ccccn3)c2c(=O)[nH]1 [Compound A, 3-ethyl-5-[5-(4-ethylpiperazin-1-ylsulphonyl)-2-n-propoxyphenyl]-1-(pyridin-2-yl)methyl-1,6-dihydro-7H-pyrazolo[4,3-d]pyrimidin-7-one]",,,,small reduction,−6.7,−2.7,−6,+11.4%
